Results on 19 compounds are retold here after patent US20260297085A1, “1 H-PYRROLO[2,3-B]PYRIDIN-4-YL]-2-OXOPYRROLIDINE-3-CARBONITRILE DERIVATIVES AS TYROSINE KINASE 2 (TYK2) INHIBITORS FOR THE TREATMENT OF INFLAMMATORY DISEASES” (BIOGEN MA INC., priority 2023, published 2026).

Assay [1] deals with T1, human TYK2 kinase domain (JH1) (Homo sapiens, UniProt P29597).
T1 construct: recombinantly generated catalytic kinase (also known as JH1) domain of human JAK1, JAK2, JAK3 and TYK2
T1 sequence (P29597 897-1176 limits assumed): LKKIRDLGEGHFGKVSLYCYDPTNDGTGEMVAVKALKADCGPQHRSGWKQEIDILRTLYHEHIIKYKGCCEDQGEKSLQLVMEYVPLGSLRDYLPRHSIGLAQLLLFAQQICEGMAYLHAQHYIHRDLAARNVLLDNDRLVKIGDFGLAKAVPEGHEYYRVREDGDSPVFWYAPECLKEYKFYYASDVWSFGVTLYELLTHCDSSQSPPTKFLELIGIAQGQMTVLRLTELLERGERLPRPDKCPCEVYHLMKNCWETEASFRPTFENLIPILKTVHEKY
Nature of the assay: JH1 biochemical assay for TYK2 (ADP-Glo kinase assay, recombinant JH1 catalytic domain, JAK3-974 peptide, 10 μM ATP). The note with it: TYK2 JH1, ADP-Glo. In a few lines: (§1)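 Luminescent ADP read-out after residual ATP depletion, 100 min reaction. Kinase domain concentrations were 4 nM (JAK1), 0.2 nM (JAK2), 0.3 nM (JAK3) and 2 nM (TYK2), each with 50 μM peptide. IC50 values came from 4-parameter logistic fits over 11 points, 3-fold steps, top 10 μM or 1 μM.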

The target of assay [2] is T2, human JAK1 kinase domain (JH1) (Homo sapiens, UniProt P23458).
T2 construct: recombinantly generated catalytic kinase (also known as JH1) domain of human JAK1, JAK2, JAK3 and TYK2
The assay can be described thus: JH1 biochemical assay for JAK1 (ADP-Glo kinase assay, recombinant JH1 catalytic domain, JAK3-342 peptide, 35 μM ATP). Particulars: JAK1 JH1, ADP-Glo. Put shortly: as §1
For orientation: ADP-Glo turns the ADP formed in a reaction into a luminescent signal.

For assay [3], the target named is T3, human JAK2 kinase domain (JH1) (Homo sapiens, UniProt O60674).
T3 construct: recombinantly generated catalytic kinase (also known as JH1) domain of human JAK1, JAK2, JAK3 and TYK2
The assay can be described thus: JH1 biochemical assay for JAK2 (ADP-Glo kinase assay, recombinant JH1 catalytic domain, JAK3-974 peptide, 15 μM ATP). The note with it: JAK2 JH1, ADP-Glo. In a few lines: as §1

In assay [4] the target is T4, human JAK3 kinase domain (JH1) (Homo sapiens, UniProt P52333).
T4 construct: recombinantly generated catalytic kinase (also known as JH1) domain of human JAK1, JAK2, JAK3 and TYK2
The assay can be described thus: JH1 biochemical assay for JAK3 (ADP-Glo kinase assay, recombinant JH1 catalytic domain, JAK3-974 peptide, 4 μM ATP). Particulars: JAK3 JH1, ADP-Glo. Put shortly: as §1

Counter-ions that a name gives are not always drawn.

T4 sequence (P52333 822-1111 limits assumed): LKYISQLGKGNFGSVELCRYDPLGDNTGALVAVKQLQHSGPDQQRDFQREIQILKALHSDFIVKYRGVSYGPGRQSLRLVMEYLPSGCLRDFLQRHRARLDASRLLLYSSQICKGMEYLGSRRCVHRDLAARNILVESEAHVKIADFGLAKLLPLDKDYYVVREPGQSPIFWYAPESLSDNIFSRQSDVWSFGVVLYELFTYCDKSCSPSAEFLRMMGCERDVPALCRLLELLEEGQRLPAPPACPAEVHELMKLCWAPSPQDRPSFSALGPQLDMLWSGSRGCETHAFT
T2 sequence (P23458 875-1153 limits assumed): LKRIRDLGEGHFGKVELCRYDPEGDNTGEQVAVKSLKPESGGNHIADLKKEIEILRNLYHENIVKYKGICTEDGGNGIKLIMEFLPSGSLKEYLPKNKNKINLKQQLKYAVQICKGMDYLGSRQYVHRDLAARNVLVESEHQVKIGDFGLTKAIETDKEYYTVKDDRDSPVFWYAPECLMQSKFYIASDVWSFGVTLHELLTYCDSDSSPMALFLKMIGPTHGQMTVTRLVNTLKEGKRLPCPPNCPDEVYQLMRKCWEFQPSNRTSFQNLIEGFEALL
T3 sequence (O60674 849-1124 limits assumed): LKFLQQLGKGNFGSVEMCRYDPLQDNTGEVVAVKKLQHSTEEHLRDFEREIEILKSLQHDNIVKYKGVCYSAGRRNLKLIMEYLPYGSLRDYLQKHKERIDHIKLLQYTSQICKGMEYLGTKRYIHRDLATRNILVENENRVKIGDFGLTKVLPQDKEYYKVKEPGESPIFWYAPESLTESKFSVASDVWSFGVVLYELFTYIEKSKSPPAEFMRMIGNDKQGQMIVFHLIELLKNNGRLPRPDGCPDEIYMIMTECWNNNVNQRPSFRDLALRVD

For orientation: IC50 means the concentration at which inhibition is half-maximal. `CC(=O)Nc1cncc(-c2cn3nccc3c(N3C[C@@H](C)[C@@](C#N)(C4CC4)C3=O)n2)c1` [Example 249, N-(5-(4-((3R,4S)-3-cyano-3-cyclopropyl-4-methyl-2-oxopyrrolidin-1-yl)pyrazolo[1,5-a]pyrazin-6-yl)pyridin-3-yl)acetamide trifluoroacetate]: the IC50 in assay [1] was more than 100 nM; in assay [2], more than 10000 nM; in assay [3] it was more than 10000 nM; in assay [4], 5000 to 10000 nM.

As to `COc1ncccc1-c1cn2nccc2c(N2C[C@@H](C)[C@@](C#N)(C3CC3)C2=O)n1` [Example 250, (3R,4S)-3-cyclopropyl-1-(6-(2-methoxypyridin-3-yl)pyrazolo[1,5-a]pyrazin-4-yl)-4-methyl-2-oxopyrrolidine-3-carbonitrile], the IC50 in assay [1] was in the range of 20 to 50 nM; in assay [2], 100 to 1000 nM; in assay [3], 1000 to 5000 nM; in assay [4], 1000 to 5000 nM.

For `COc1cc(-c2cn3nccc3c(N3C[C@@H](C)[C@@](C#N)(C4CC4)C3=O)n2)c(OC)nn1` [Example 253, (3R,4S)-3-cyclopropyl-1-(6-(3,6-dimethoxypyridazin-4-yl)pyrazolo[1,5-a]pyrazin-4-yl)-4-methyl-2-oxopyrrolidine-3-carbonitrile trifluoroacetate], the IC50 is 20 to 50 nM in assay [1], 1000 to 5000 nM in assay [2], more than 10000 nM in assay [3] and 5000 to 10000 nM in assay [4].

As for `C[C@@H]1CN(c2nc(-c3ccnn3C)cn3nccc23)C(=O)[C@]1(C#N)C1CC1` [Example 254, (3R,4S)-3-cyclopropyl-4-methyl-1-(6-(1-methyl-1H-pyrazol-5-yl)pyrazolo[1,5-a]pyrazin-4-yl)-2-oxopyrrolidine-3-carbonitrile trifluoroacetate], the IC50 in assay [1] was in the range of 20 to 50 nM; in assay [2], 100 to 1000 nM; in assay [3], 100 to 1000 nM; in assay [4] it was 100 to 1000 nM.

Regarding `C[C@@H]1CN(c2nc(-c3cccc(F)n3)cn3nccc23)C(=O)[C@]1(C#N)C1CC1` [Example 255, (3R,4S)-3-cyclopropyl-1-(6-(6-fluoropyridin-2-yl)pyrazolo[1,5-a]pyrazin-4-yl)-4-methyl-2-oxopyrrolidine-3-carbonitrile trifluoroacetate], the IC50 was 20 to 50 nM in assay [1], less than 100 nM in assay [2], more than 10000 nM in assay [3] and 100 to 1000 nM in assay [4].

Consider `C[C@@H]1CN(c2nc(-c3cccnc3OC(F)F)cn3nccc23)C(=O)[C@]1(C#N)C1CC1` [Example 256, (3R,4S)-3-cyclopropyl-1-(6-(2-(difluoromethoxy)pyridin-3-yl)pyrazolo[1,5-a]pyrazin-4-yl)-4-methyl-2-oxopyrrolidine-3-carbonitrile trifluoroacetate], for which the half-maximal inhibitory concentration (IC50) in assay [1] is more than 100 nM; in assay [2], more than 10000 nM; in assay [3] it was 1000 to 5000 nM; in assay [4] it was 1000 to 5000 nM.

With `C[C@@H]1CN(c2nc(-c3cncc(C(F)(F)F)c3)cn3nccc23)C(=O)[C@]1(C#N)C1CC1` [Example 260, (3R,4S)-3-cyclopropyl-4-methyl-2-oxo-1-(6-(5-(trifluoromethyl)pyridin-3-yl)pyrazolo[1,5-a]pyrazin-4-yl)pyrrolidine-3-carbonitrile trifluoroacetate], the IC50 fell in the range of 50 to 100 nM in assay [1], 100 to 1000 nM in assay [2], 1000 to 5000 nM in assay [3] and 1000 to 5000 nM in assay [4].

Turning to `COc1ncc(-c2cn3nccc3c(N3C[C@@H](C)[C@@](C#N)(C4CC4)C3=O)n2)cc1C#N` [Example 262, 5-(4-((3R,4S)-3-cyano-3-cyclopropyl-4-methyl-2-oxopyrrolidin-1-yl)pyrazolo[1,5-a]pyrazin-6-yl)-2-methoxynicotinonitrile trifluoroacetate], the IC50 in assay [1] was 20 to 50 nM; in assay [2] it was more than 10000 nM; in assay [3], more than 10000 nM; in assay [4], more than 10000 nM.

Consider `C[C@@H]1CN(c2nc(-c3cncnc3)cn3nccc23)C(=O)[C@]1(C#N)C1CC1` [Example 265, (3R,4S)-3-cyclopropyl-4-methyl-2-oxo-1-(6-(pyrimidin-5-yl)pyrazolo[1,5-a]pyrazin-4-yl)pyrrolidine-3-carbonitrile trifluoroacetate], for which the IC50 was 50 to 100 nM in assay [1], 1000 to 5000 nM in assay [2], 1000 to 5000 nM in assay [3] and 1000 to 5000 nM in assay [4].

As for `C[C@@H]1CN(c2nc(-c3cnn(C)c3)cc3nccn23)C(=O)[C@]1(C#N)C1CC1` [Example 269, (3R,4S)-3-cyclopropyl-4-methyl-1-(7-(1-methyl-1H-pyrazol-4-yl)imidazo[1,2-c]pyrimidin-5-yl)-2-oxopyrrolidine-3-carbonitrile], the IC50 in assay [1] was more than 100 nM; in assay [2], 1000 to 5000 nM; in assay [3], 5000 to 10000 nM; in assay [4] it was 1000 to 5000 nM.

Regarding `C[C@@H]1CN(c2cc(-c3cnn(C(F)F)c3)cn3ncc(F)c23)C(=O)[C@]1(C#N)C1CC1` [Example 270, (3R,4S)-3-cyclopropyl-1-(6-(1-(difluoromethyl)-1H-pyrazol-4-yl)-3-fluoropyrazolo[1,5-a]pyridin-4-yl)-4-methyl-2-oxopyrrolidine-3-carbonitrile], the IC50 lay within 20 to 50 nM in assay [1], 1000 to 5000 nM in assay [2], 1000 to 5000 nM in assay [3] and 1000 to 5000 nM in assay [4].

Consider `C[C@@H]1CN(c2cccn3nc(-c4cnn(C)c4)cc23)C(=O)[C@]1(C#N)C1CC1` [Example 272, (3R,4S)-3-cyclopropyl-4-methyl-1-(2-(1-methyl-1H-pyrazol-4-yl)pyrazolo[1,5-a]pyridin-4-yl)-2-oxopyrrolidine-3-carbonitrile], for which the IC50 is more than 100 nM in assay [1], more than 10000 nM in assay [2], more than 10000 nM in assay [3] and more than 10000 nM in assay [4].

Turning to `C[C@@H]1CN(c2ccnc3cc(-c4cnn(C)c4)nn23)C(=O)[C@]1(C#N)C1CC1` [Example 273, (3R,4S)-3-cyclopropyl-4-methyl-1-(2-(1-methyl-1H-pyrazol-4-yl)pyrazolo[1,5-a]pyrimidin-7-yl)-2-oxopyrrolidine-3-carbonitrile], the IC50 was more than 100 nM in assay [1], 5000 to 10000 nM in assay [2], more than 10000 nM in assay [3] and 5000 to 10000 nM in assay [4].

On to `C[C@@H]1CN(c2n[nH]c3ncc(-c4cnn(C)c4)cc23)C(=O)[C@]1(C#N)C1CC1` [Example 274, (3R,4S)-3-cyclopropyl-4-methyl-1-(5-(1-methyl-1H-pyrazol-4-yl)-1H-pyrazolo[3,4-b]pyridin-3-yl)-2-oxopyrrolidine-3-carbonitrile], for which the half-maximal inhibitory concentration (IC50) in assay [1] was more than 100 nM; in assay [2], more than 10000 nM; in assay [3], 100 to 1000 nM; in assay [4], more than 10000 nM.

On to `C[C@@H]1CN(c2nn(-c3cccc(=O)n3C)c3cnccc23)C(=O)[C@]1(C#N)C1CC1` [Example 279, (3R,4S)-3-cyclopropyl-4-methyl-1-(1-(1-methyl-6-oxo-1,6-dihydropyridin-2-yl)-1H-pyrazolo[3,4-c]pyridin-3-yl)-2-oxopyrrolidine-3-carbonitrile], for which the IC50 in assay [1] was more than 100 nM; in assay [2], more than 10000 nM; in assay [3], more than 10000 nM; in assay [4], more than 10000 nM.

As to `Cc1ccc(-n2nc(N3C[C@@H](C)[C@@](C#N)(C4CC4)C3=O)c3ccncc32)cn1` [Example 282, (3R,4S)-3-cyclopropyl-4-methyl-1-(1-(6-methylpyridin-3-yl)-1H-pyrazolo[3,4-c]pyridin-3-yl)-2-oxopyrrolidine-3-carbonitrile], the IC50 in assay [1] lay within 20 to 50 nM; in assay [2] it was 1000 to 5000 nM; in assay [3] it was 1000 to 5000 nM; in assay [4] it was 1000 to 5000 nM.

Take `C[C@@H]1CN(c2ccc3ncc(-c4cnn(C)c4)cn23)C(=O)[C@]1(C#N)C1CC1` [Example 283, (3R,4S)-3-cyclopropyl-4-methyl-1-(3-(1-methyl-1H-pyrazol-4-yl)pyrrolo[1,2-a]pyrimidin-6-yl)-2-oxopyrrolidine-3-carbonitrile]: the IC50 in assay [1] is more than 100 nM; in assay [2], more than 10000 nM; in assay [3], more than 10000 nM; in assay [4], more than 10000 nM.

As to `C[C@@H]1CN(c2cc(-c3cnn(C)c3)cc3ncnn23)C(=O)[C@]1(C#N)C1CC1` [Example 285, (3R,4S)-3-cyclopropyl-4-methyl-1-(7-(1-methyl-1H-pyrazol-4-yl)-[1,2,4]triazolo[1,5-a]pyridin-5-yl)-2-oxopyrrolidine-3-carbonitrile], the IC50 is more than 100 nM in assay [1], more than 10000 nM in assay [2], more than 10000 nM in assay [3] and more than 10000 nM in assay [4].

As for `C[C@@H]1CN(c2ncnc3cc(-c4cnn(C)c4)sc23)C(=O)[C@]1(C#N)C1CC1` [Example 286, (3R,4S)-3-cyclopropyl-4-methyl-1-(6-(1-methyl-1H-pyrazol-4-yl)thieno[3,2-d]pyrimidin-4-yl)-2-oxopyrrolidine-3-carbonitrile], the IC50 in assay [1] was more than 100 nM; in assay [2] it was more than 10000 nM; in assay [3], 1000 to 5000 nM; in assay [4], more than 10000 nM.
